Assays:
THR alpha-LBD = target: T1, THR alpha-LBD (Homo sapiens, UniProt P10827); experiment: LanthaScreen TR-FRET Thyroid Receptor alpha Coactivator Assay; type: biochemical; conditions: 2 hours incubation at room temperature, run in duplicate multiple times, average data, read-out: EC50 THRα-FRET
T1 construct: THR alpha-LBD (0.4 nM final concentration) or THR beta-LBD (1.0 nM final concentration) was added; purchased ThermoFisher
Description: Example B1: Time-Resolved Fluorescence Resonance Energy Transfer (TR-FRET) Assay for Thyroid Hormone Receptor Agonist Screening
LanthaScreen™ TR-FRET Thyroid Receptor alpha Coactivator Assay kit (ThermoFisher) and LanthaScreen™ TR-FRET Thyroid Receptor beta Coactivator Assay kit (ThermoFisher) were used for agonist compound screening. Compounds in DMSO were diluted using ECHO Liquid Handler (Labcyte Inc.) into 384 plates in 10-point 3-fold series in duplicate (5 micro M final top concentration). Buffer C (ThermoFisher) was added to each well before the 4× mixture of fluorescein-SCR2-2 coactivator (200 nM final concentration), Terbium-labeled anti-GST antibody (2 nM final concentration), and THR alpha-LBD (0.4 nM final concentration) or THR beta-LBD (1.0 nM final concentration) was added. After 2 hours incubation at room temperature in the dark, the TR-FRET signal was measured on an EnVision plate reader (PerkinElmer) with excitation at 340 nm and dual emission readout at 495 and 520 nm with the delay time of 100 micro second and the integration time of 200 micro second. The ratio of emission signal at 520 and at 495 was used to calculate EC50 using GraphPad Prism (GraphPad Software). […] Compounds' THR-beta selectivity values in Table 2 are derived from T3-selectivity normalized data.

THR beta-LBD = target: T2, THR beta-LBD (Homo sapiens, UniProt P10828); experiment: LanthaScreen TR-FRET Thyroid Receptor beta Coactivator Assay; type: biochemical; conditions: for THRβ-Selectivity: THR beta over THR alpha, derived from T3-selectivity normalized data; for EC50: TR-FRET coactivator assay, 2 hours incubation at room temperature, run in duplicate multiple times, average data, read-out: EC50 THRβ-FRET
T2 construct: THR alpha-LBD (0.4 nM final concentration) or THR beta-LBD (1.0 nM final concentration) was added; purchased ThermoFisher
T2 sequence (P10828 217-461 limits assumed): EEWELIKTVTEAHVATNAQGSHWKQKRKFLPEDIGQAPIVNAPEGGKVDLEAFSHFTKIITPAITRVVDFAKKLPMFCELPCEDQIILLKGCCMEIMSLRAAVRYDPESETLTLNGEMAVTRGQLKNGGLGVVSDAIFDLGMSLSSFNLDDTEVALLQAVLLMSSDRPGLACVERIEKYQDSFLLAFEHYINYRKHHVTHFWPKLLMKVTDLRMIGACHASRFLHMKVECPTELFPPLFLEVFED
Description: LanthaScreen™ TR-FRET Thyroid Receptor alpha Coactivator Assay kit (ThermoFisher) and LanthaScreen™ TR-FRET Thyroid Receptor beta Coactivator Assay kit (ThermoFisher) were used for agonist compound screening. […] Buffer C (ThermoFisher) was added to each well before the 4× mixture of fluorescein-SCR2-2 coactivator (200 nM final concentration), Terbium-labeled anti-GST antibody (2 nM final concentration), and THR alpha-LBD (0.4 nM final concentration) or THR beta-LBD (1.0 nM final concentration) was added.

T1 sequence (P10827 163-410 isoform P10827-2 limits assumed, other chains not shown): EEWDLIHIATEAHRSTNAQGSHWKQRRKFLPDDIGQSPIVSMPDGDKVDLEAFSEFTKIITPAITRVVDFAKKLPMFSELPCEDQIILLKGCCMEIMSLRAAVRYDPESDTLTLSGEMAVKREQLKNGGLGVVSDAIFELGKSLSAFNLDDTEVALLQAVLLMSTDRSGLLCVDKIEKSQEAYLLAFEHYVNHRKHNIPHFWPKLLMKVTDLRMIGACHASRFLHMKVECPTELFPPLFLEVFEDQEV

SMILES | EC50 (THR alpha-LBD) [nM] | THRβ-Selectivity (THR beta-LBD) | EC50 (THR beta-LBD) [nM] | THRβ-Selectivity (THR beta-LBD; listed as 31 P1) | THRβ-Selectivity (THR beta-LBD; listed as 33 P1)
O=c1[nH]nc(-c2cc(Cl)c(Oc3cc(C4CC4)c(=O)[nH]n3)c(Cl)c2)c(=O)[nH]1 [Compound 6, 6-(3,5-dichloro-4-((5-cyclopropyl-6-oxo-1,6-dihydropyridazin-3-yl)oxy)phenyl)-1,2,4-triazine-3,5(2H,4H)-dione] | 981 | 23.6 | 196 |  | 
CC(C)c1cc(Oc2c(Cl)cc(-c3nn(CC#N)c(=O)[nH]c3=O)cc2Cl)n[nH]c1=O [Compound 22, 2-(6-(3,5-dichloro-4-((5-isopropyl-6-oxo-1,6-dihydropyridazin-3-yl)oxy)phenyl)-3,5-dioxo-4,5-dihydro-1,2,4-triazin-2(3H)-yl)acetonitrile] | 3440 | 12.9 | 1170 |  | 
CC(C)c1cc(Cc2c(Cl)cc(-c3n[nH]c(=O)[nH]c3=O)cc2Cl)nn(C)c1=O [Compound 17, 6-(3,5-dichloro-4-((5-isopropyl-1-methyl-6-oxo-1,6-dihydropyridazin-3-yl)methyl)phenyl)-1,2,4-triazine-3,5(2H,4H)-dione] | 99.6 | 11.1 | 34.6 |  | 
CC(CO)c1cc(Oc2c(Cl)cc(-c3nn(C)c(=O)[nH]c3=O)cc2Cl)n[nH]c1=O (stereo not drawn) [Compound 29, 6-(3,5-dichloro-4-((5-(1-hydroxypropan-2-yl)-6-oxo-1,6-dihydropyridazin-3-yl)oxy)phenyl)-2-methyl-1,2,4-triazine-3,5(2H,4H)-dione] | 4040 | 7.105 | 2070 |  | 
CC(C)c1cc(C(=O)c2c(Cl)cc(-c3n[nH]c(=O)[nH]c3=O)cc2Cl)nn(C)c1=O [Compound 7, 6-(3,5-dichloro-4-(5-isopropyl-1-methyl-6-oxo-1,6-dihydropyridazine-3-carbonyl)phenyl)-1,2,4-triazine-3,5(2H,4H)-dione] | 435 | 15.3 | 136 |  | 
CCC(CC)c1cc(Oc2c(Cl)cc(-c3nn(C)c(=O)[nH]c3=O)cc2Cl)n[nH]c1=O [Compound 27, 6-(3,5-dichloro-4-((6-oxo-5-(pentan-3-yl)-1,6-dihydropyridazin-3-yl)oxy)phenyl)-2-methyl-1,2,4-triazine-3,5(2H,4H)-dione] | 1750 | 33.9 | 213 |  | 
CC(C)c1cc(Cc2c(Cl)cc(-c3nn(C)c(=O)[nH]c3=O)cc2Cl)n[nH]c1=O [Compound 16, 6-(3,5-dichloro-4-((5-isopropyl-6-oxo-1,6-dihydropyridazin-3-yl)methyl)phenyl)-2-methyl-1,2,4-triazine-3,5(2H,4H)-dione] | 1210 | 28.3 | 163 |  | 
CCc1cc(Oc2c(Cl)cc(-c3nn(C)c(=O)[nH]c3=O)cc2Cl)n[nH]c1=O [Compound 28, 6-(3,5-dichloro-4-((5-ethyl-6-oxo-1,6-dihydropyridazin-3-yl)oxy)phenyl)-2-methyl-1,2,4-triazine-3,5(2H,4H)-dione] | 3440 | 19.2 | 670 |  | 
CCC(O)c1cc(Oc2c(Cl)cc(-c3nn(C)c(=O)[nH]c3=O)cc2Cl)n[nH]c1=O (stereo not drawn) [Compound 30, 6-(3,5-dichloro-4-((5-(1-hydroxypropyl)-6-oxo-1,6-dihydropyridazin-3-yl)oxy)phenyl)-2-methyl-1,2,4-triazine-3,5(2H,4H)-dione] | 1310 | 24.7 | 214 |  | 
CCOC(=O)Cn1nc(-c2cc(Cl)c(Oc3cc(C(C)C)c(=O)[nH]n3)c(Cl)c2)c(=O)[nH]c1=O [Compound 20, ethyl 2-(6-(3,5-dichloro-4-((5-isopropyl-6-oxo-1,6-dihydropyridazin-3-yl)oxy)phenyl)-3,5-dioxo-4,5-dihydro-1,2,4-triazin-2(3H)-yl)acetate] | 1330 | 2.7 | 1930 |  | 
CC(C)c1cc(Oc2c(Cl)cc(-c3n[nH]c(=O)[nH]c3=O)cc2Cl)n[nH]c1=O [Compound 2, 6-(3,5-dichloro-4-((5-isopropyl-6-oxo-1,6-dihydropyridazin-3-yl)oxy)phenyl)-1,2,4-triazine-3,5(2H,4H)-dione] | 681 | 27.7 | 141 |  | 
CC(C)c1cc(Oc2c(Cl)cc(-c3nn(CC(F)F)c(=O)[nH]c3=O)cc2Cl)nn(C)c1=O [Compound 24, 6-(3,5-dichloro-4-((5-isopropyl-1-methyl-6-oxo-1,6-dihydropyridazin-3-yl)oxy)phenyl)-2-(2,2-difluoroethyl)-1,2,4-triazine-3,5(2H,4H)-dione] | 1480 | 4.7 | 1190 |  | 
C[C@@H](O)c1cc(Oc2c(Cl)cc(-c3nn(C)c(=O)[nH]c3=O)cc2Cl)n[nH]c1=O (single isomer, unassigned) [Compound 31 P1] | > 5000 |  | 1200 | >26.2 | 
CC(C)c1cc(Oc2c(Cl)cc(-c3nn(C(C)C)c(=O)[nH]c3=O)cc2Cl)n[nH]c1=O [Compound 4, 6-(3,5-dichloro-4-((5-isopropyl-6-oxo-1,6-dihydropyridazin-3-yl)oxy)phenyl)-2-isopropyl-1,2,4-triazine-3,5(2H,4H)-dione] | > 5000 | >3.0 | > 5000 |  | 
CC(C)c1cc(Cc2c(Cl)cc(-c3n[nH]c(=O)[nH]c3=O)cc2Cl)n[nH]c1=O [Compound 15, 6-(3,5-dichloro-4-((5-isopropyl-6-oxo-1,6-dihydropyridazin-3-yl)methyl)phenyl)-1,2,4-triazine-3,5(2H,4H)-dione] | 3340 | 31.2 | 381 |  | 
CC(C)c1cc(Oc2c(Cl)cc(-c3nn(C)c(=O)[nH]c3=O)cc2Cl)nn(C)c1=O [Compound 9, 6-(3,5-dichloro-4-((5-isopropyl-1-methyl-6-oxo-1,6-dihydropyridazin-3-yl)oxy)phenyl)-2-methyl-1,2,4-triazine-3,5(2H,4H)-dione] | 161 | 25.5 | 23.9 |  | 
C[C@@H](O)c1cc(Oc2c(Cl)cc(-c3nn(C)c(=O)[nH]c3=O)cc2Cl)n[nH]c1=O (single isomer, unassigned) [Compound 31 P2] | 3080 | 21.7 | 452 |  | 
CC(C)c1cc(C(=O)c2c(Cl)cc(-c3n[nH]c(=O)[nH]c3=O)cc2Cl)n[nH]c1=O [Compound 8, 6-(3,5-dichloro-4-(5-isopropyl-6-oxo-1,6-dihydropyridazine-3-carbonyl)phenyl)-1,2,4-triazine-3,5(2H,4H)-dione] | 3670 | 9.5 | 1450 |  | 
CC[C@@H](C)c1cc(Oc2c(Cl)cc(-c3n[nH]c(=O)[nH]c3=O)cc2Cl)n[nH]c1=O (single isomer, unassigned) [Compound 33 P1] | 2430 |  | 696 |  | 11.3
CC(C)c1cc(C(=O)c2c(Cl)cc(-c3nn(C)c(=O)[nH]c3=O)cc2Cl)n[nH]c1=O [Compound 13, 6-(3,5-dichloro-4-(5-isopropyl-6-oxo-1,6-dihydropyridazine-3-carbonyl)phenyl)-2-methyl-1,2,4-triazine-3,5(2H,4H)-dione] | > 5000 | >27.4 | 750 |  | 
CC(C)c1cc(Oc2c(Cl)cc(-c3n[nH]c(=O)[nH]c3=O)c(F)c2Cl)nn(C)c1=O [Compound 25, 6-(3,5-dichloro-2-fluoro-4-((5-isopropyl-1-methyl-6-oxo-1,6-dihydropyridazin-3-yl)oxy)phenyl)-1,2,4-triazine-3,5(2H,4H)-dione] | 25 | 4.4 | 22.2 |  | 
CC(C)c1cc(Oc2c(Cl)cc(-c3n[nH]c(=O)[nH]c3=O)cc2Cl)nn(C)c1=O [Compound 1, 6-(3,5-dichloro-4-((5-isopropyl-1-methyl-6-oxo-1,6-dihydropyridazin-3-yl)oxy)phenyl)-1,2,4-triazine-3,5(2H,4H)-dione] | 79.2 | 17 | 24.7 |  | 

— patent US11203587B2, “Thyroid hormone receptor beta agonist compounds” (Terns, Inc., priority 2018, dated 2021)
